PubChem BioAssay AID256 (DTP/NCI, 2004)
Values joined by “and” are separate entries in the source; they are usually repeats but may differ in a detail not shown here. Identical values can stand only once. Toxic doses and inconclusive results are not listed. The calls were made as follows: active = survival T/C of 150% or more; inactive = T/C below 125% in these data.

System: CD2F1 mice, L1210 leukemia ip, survival T/C
Test: NCI In Vivo Anticancer Drug Screen. Data for tumor model L1210 Leukemia (intraperitoneal) in CD2F1 (CDF1) mice
Details: higher = longer survival
Summary of the method: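 Transplantable tumor in mice; compound-treated vs vehicle-treated groups. Read-out = treated/control ratio of the measured endpoint.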

[1] = endpoint: median survival time, dose: 12.5 mg/kg/injection, schedule: Q01DX005 (ip), vehicle: saline with Tween-80
[2] = endpoint: median survival time, dose: 25.0 mg/kg/injection, schedule: Q01DX005 (ip), vehicle: saline with Tween-80
[3] = endpoint: median survival time, dose: 50.0 mg/kg/injection, schedule: Q01DX005 (ip), vehicle: saline with Tween-80
[4] = endpoint: median survival time, dose: 100.0 mg/kg/injection, schedule: Q01DX005 (ip), vehicle: saline with Tween-80
[5] = endpoint: median survival time, dose: 200.0 mg/kg/injection, schedule: Q01DX005 (ip), vehicle: saline with Tween-80
[6] = endpoint: mean survival time, dose: 100.0 mg/kg/injection, schedule: Q04DX003 (ip), vehicle: saline with Tween-80
[7] = endpoint: mean survival time, dose: 200.0 mg/kg/injection, schedule: Q04DX003 (ip), vehicle: saline with Tween-80
[8] = endpoint: mean survival time, dose: 400.0 mg/kg/injection, schedule: Q04DX003 (ip), vehicle: saline with Tween-80
[9] = endpoint: mean survival time, dose: 100.0 mg/kg/injection, schedule: Q01DX001 (ip), vehicle: saline
[10] = endpoint: mean survival time, dose: 200.0 mg/kg/injection, schedule: Q01DX001 (ip), vehicle: saline
[11] = endpoint: mean survival time, dose: 100.0 mg/kg/injection, schedule: Q01DX009 (ip), vehicle: saline with Tween-80
[12] = endpoint: mean survival time, dose: 200.0 mg/kg/injection, schedule: Q01DX009 (ip), vehicle: saline with Tween-80
[13] = endpoint: mean survival time, dose: 400.0 mg/kg/injection, schedule: Q01DX009 (ip), vehicle: saline with Tween-80
[14] = endpoint: mean survival time, dose: 25.0 mg/kg/injection, schedule: Q01DX009 (ip), vehicle: other
[15] = endpoint: mean survival time, dose: 50.0 mg/kg/injection, schedule: Q01DX009 (ip), vehicle: other
[16] = endpoint: mean survival time, dose: 100.0 mg/kg/injection, schedule: Q01DX009 (ip), vehicle: other
[17] = endpoint: mean survival time, dose: 100.0 mg/kg/injection, schedule: Q01DX001 (ip), vehicle: saline with Tween-80
[18] = endpoint: mean survival time, dose: 200.0 mg/kg/injection, schedule: Q01DX001 (ip), vehicle: saline with Tween-80
[19] = endpoint: mean survival time, dose: 400.0 mg/kg/injection, schedule: Q01DX001 (ip), vehicle: saline with Tween-80
[20] = endpoint: mean survival time, dose: 50.0 mg/kg/injection, schedule: Q01DX009 (ip), vehicle: saline with Tween-80
[21] = endpoint: mean survival time, dose: 25.0 mg/kg/injection, schedule: Q01DX001 (ip), vehicle: saline with Tween-80
[22] = endpoint: mean survival time, dose: 50.0 mg/kg/injection, schedule: Q01DX001 (ip), vehicle: saline with Tween-80
[23] = endpoint: mean survival time, dose: 100.0 mg/kg/injection, schedule: Q04DX002 (ip), vehicle: saline with Tween-80

Measured: T/C

O=c1cc(CCl)n2cnc3c(ncn3C3OC(CO)C(O)C3O)c2n1 (centres undefined)
inactive: [1] 103 % of control | [2] 102 % of control | [3] 96 % of control | [4] 104 % of control | [5] 98 % of control

c1ccc(N=C(c2ccccc2)c2ccccc2)cc1
inactive: [6] 103 % of control | [7] 93 % of control | [8] 93 % of control

CN(C)C1CCCC(OC(=O)c2ccccc2)C1 (centres undefined)
inactive: endpoint: mean survival time, dose: 25.0 mg/kg/injection, schedule: Q04DX002 (ip), vehicle: saline 97 % of control | endpoint: mean survival time, dose: 50.0 mg/kg/injection, schedule: Q04DX002 (ip), vehicle: saline 105 % of control | [9] 101 % of control | endpoint: mean survival time, dose: 100.0 mg/kg/injection, schedule: Q04DX002 (ip), vehicle: saline 94 % of control | [10] 100 % of control

NC(=O)NN=C1CCC1
inactive: endpoint: mean survival time, dose: 75.0 mg/kg/injection, schedule: Q01DX001 (ip), vehicle: saline 98 % of control

COc1nc(NC2OCC(O)C(O)C2O)c(I)c(=O)n1C (centres undefined)
inactive: [1] 101 % of control | [2] 100 % of control | [3] 100 % of control | [4] 101 % of control | [5] 100 % of control

O=CNC(CSSCC(NC=O)C(=O)O)C(=O)O (centres undefined)
inactive: [11] 100 % of control | [12] 97 % of control | [13] 94 % of control

COc1ccc2nc3cc(Cl)ccc3c(Nc3ccc(NC(C)=O)cc3)c2n1
inactive: [14] 92 % of control | [15] 86 % of control | [16] 94 % of control

CCOC(=O)CC(=O)NCCc1ccccc1OC
inactive: [17] 102 % of control | [18] 105 % of control | [19] 102 % of control

CCOC(=O)N(OCc1ccccc1)P(=O)(N1CC1(C)C)N1CC1(C)C (centres undefined)
inactive: endpoint: mean survival time, dose: 25.0 mg/kg/injection, schedule: Q01DX009 (ip), vehicle: saline with Tween-80 95 % of control | [20] 93 % of control | [11] 98 % of control

O=C(O)c1cccc2[nH][nH]c(=O)c12
inactive: [17] 100 % of control | [11] 101 % of control | [18] 102 % of control | [12] 100 % of control | [19] 100 % of control | [13] 98 % of control

COC(=O)C1C2C=CC(C2)C1C(=O)O (centres undefined)
inactive: [9] 100 % of control | [10] 98 % of control | endpoint: mean survival time, dose: 400.0 mg/kg/injection, schedule: Q01DX001 (ip), vehicle: saline 103 % of control

CC(C)C(NC(=O)OC(C)(C)C)C(=O)ON1C(=O)CCC1=O (centres undefined)
inactive: [6] 104 % of control | [7] 100 % of control

CCOC(CNC(=O)NC1CCCCC1)OCC
inactive: [11] 113 % of control | [6] 103 % of control | [12] 104 % of control | [7] 104 % of control | [13] 108 % of control | [8] 93 % of control

Nc1nc2nc(-c3ccccc3)nc(N)c2nc1-c1ccc(N(CCO)CCO)cc1
inactive: endpoint: mean survival time, dose: 45.0 mg/kg/injection, schedule: Q01DX001 (ip), vehicle: saline 100 % of control | endpoint: mean survival time, dose: 67.0 mg/kg/injection, schedule: Q01DX001 (ip), vehicle: saline 97 % of control | [9] 97 % of control | endpoint: mean survival time, dose: 150.0 mg/kg/injection, schedule: Q01DX001 (ip), vehicle: saline 96 % of control

N=C(N=c1cc(C(=O)NC(=N)NC(=N)Nc2ccc(Cl)cc2)n(C(=N)NC(=N)Nc2ccc(Cl)cc2)c(C(=O)NC(=N)NC(=N)Nc2ccc(Cl)cc2)c1)NC(=N)Nc1ccc(Cl)cc1
inactive: [6] 98 % of control | [7] 100 % of control | [8] 100 % of control

O=C(Nc1ccccc1)OCC1CC2CCC1C2 (centres undefined)
inactive: [11] 87 % of control | [12] 93 % of control | [13] 95 % of control

CCN(N=O)C(=O)N(Cc1ccccc1)Cc1ccccc1
inactive: [14] 94 % of control | [15] 94 % of control | [16] 96 % of control | endpoint: mean survival time, dose: 200.0 mg/kg/injection, schedule: Q01DX009 (ip), vehicle: other 96 % of control

c1ccc2c(-c3nn[nH]n3)nccc2c1
inactive: [9] 106 % of control | [10] 113 % of control

CSc1nc(NC2OCC(O)C(O)C2O)cc(=O)n1C (centres undefined)
inactive: endpoint: median survival time, dose: 12.5 mg/kg/injection, schedule: Q01DX005 (ip), vehicle: saline 98 % of control | endpoint: median survival time, dose: 25.0 mg/kg/injection, schedule: Q01DX005 (ip), vehicle: saline 102 % of control | endpoint: median survival time, dose: 50.0 mg/kg/injection, schedule: Q01DX005 (ip), vehicle: saline 102 % of control | endpoint: median survival time, dose: 100.0 mg/kg/injection, schedule: Q01DX005 (ip), vehicle: saline 105 % of control | endpoint: median survival time, dose: 200.0 mg/kg/injection, schedule: Q01DX005 (ip), vehicle: saline 100 % of control

NC(=O)Cn1cnnn1
inactive: [17] 102 % of control | [11] 98 % of control | [6] 101 % of control | [18] 100 % of control | [12] 101 % of control | [7] 95 % of control | [19] 96 % of control | [13] 98 % of control | [8] 95 % of control

O=C(Nc1cc(Cl)c(Cl)cc1Cl)C1CC1
inactive: [20] 119 % of control | [11] 101 % of control | [12] 101 % of control

Nc1cc(Cl)c(N)c(N)n1
inactive: [11] 100 % of control | [12] 91 % of control

Nc1cc(Sc2ccc(Cl)cc2)nc(N)n1
inactive: [21] 102 % of control | [22] 102 % of control | [17] 98 % of control

CCC(=O)OC1(c2ccccc2)CCN(CCCc2ccccc2Cl)CC1
inactive: [21] 108 % of control | endpoint: mean survival time, dose: 25.0 mg/kg/injection, schedule: Q04DX002 (ip), vehicle: saline with Tween-80 95 % of control | [22] 100 % of control | endpoint: mean survival time, dose: 50.0 mg/kg/injection, schedule: Q04DX002 (ip), vehicle: saline with Tween-80 98 % of control | [17] 96 % of control and 98 % of control | [23] 95 % of control

CCCCCCCNC(=O)Nc1ccc(Cl)c(Cl)c1
inactive: [17] 103 % of control | [18] 100 % of control | [19] 103 % of control

CCOC(=O)/C=C/c1c[nH]c(C(=O)OCC)c1
inactive: endpoint: mean survival time, dose: 100.0 mg/kg/injection, schedule: Q04DX002 (ip), vehicle: other 93 % of control | endpoint: mean survival time, dose: 200.0 mg/kg/injection, schedule: Q04DX002 (ip), vehicle: other 93 % of control | endpoint: mean survival time, dose: 400.0 mg/kg/injection, schedule: Q04DX002 (ip), vehicle: other 100 % of control

O=C(OC(CC[P+](c1ccccc1)(c1ccccc1)c1ccccc1)(C(=O)c1ccccc1)c1ccccc1)c1ccccc1 (centres undefined)
inactive: endpoint: mean survival time, dose: 0.38 mg/kg/injection, schedule: Q01DX009 (ip), vehicle: saline 104 % of control | endpoint: mean survival time, dose: 0.75 mg/kg/injection, schedule: Q01DX009 (ip), vehicle: saline 105 % of control | endpoint: mean survival time, dose: 1.5 mg/kg/injection, schedule: Q01DX009 (ip), vehicle: saline 93 % of control

C=C(C)CN=C=S
inactive: [6] 98 % of control

O=C(O)Cc1cccnc1
inactive: endpoint: mean survival time, dose: 100.0 mg/kg/injection, schedule: Q01DX009 (ip), vehicle: saline 98 % of control | endpoint: mean survival time, dose: 200.0 mg/kg/injection, schedule: Q01DX009 (ip), vehicle: saline 102 % of control | endpoint: mean survival time, dose: 400.0 mg/kg/injection, schedule: Q01DX009 (ip), vehicle: saline 110 % of control

NC(=O)C1CCCCC1C(N)=O (centres undefined)
inactive: [11] 105 % of control | [12] 105 % of control | [13] 103 % of control

CC1(C)OC2C(COC(=O)Oc3ccccc3)OC(n3cnc4c(=O)[nH]cnc43)C2O1 (centres undefined)
inactive: [17] 101 % of control | [23] 102 % of control | [18] 97 % of control | endpoint: mean survival time, dose: 200.0 mg/kg/injection, schedule: Q04DX002 (ip), vehicle: saline with Tween-80 94 % of control | [19] 94 % of control | endpoint: mean survival time, dose: 400.0 mg/kg/injection, schedule: Q04DX002 (ip), vehicle: saline with Tween-80 97 % of control
